Laboratory results published in article PMC7570852, “Ruthenium(II)/(III) DMSO-Based Complexes of 2-Aminophenyl Benzimidazole with In Vitro and In Vivo Anticancer Activity” (Molecules, 2020).
Marks after values point to notes of the source that are not given here.

Columns and labels:
Bax gene expression = assay: Real-time qPCR of liver tissue, Bax; type: in vivo; details: liver tissue of EAC-bearing mice, vs untreated
Procedure: RNA was isolated from liver tissues using a RNeasy Mini kit. The integrity and purity of RNA were assessed by 1% agarose gel electrophoresis and nanodrop, respectively. The obtained RNA was reverse transcribed to yield cDNA using Quantiscript reverse transcriptase. Specific primers for Bax, caspase 3, and Bcl2 genes in addition to the housekeeping gene, β actin were designed by the Primer 3 web-based tool based on the published mice sequences (Table 5). Quantitative real-time PCR (qPCR) was performed using QuantiTect SYBR Green qPCR Master Mix in a StepOnePlus real-time PCR system and the melting curve condition and fold change calculation were done as previously described.

[1] = Serum liver and kidney function tests, healthy mice; type: in vivo; details: mean ± SEM
Procedure: The mice were divided into the following eight groups (10 mice in each group): • Control group: Mice were intraperitoneally injected with a vehicle (2% DMSO + sterile saline) for 12 days. • I, II, and III control groups: Healthy normal mice were intraperitoneally injected with 6, 12, and 18 mg/kg of complex (2), respectively, for 12 days. • EAC group: Mice were intraperitoneally injected by a single dose of 2.5 × 10^6 viable Ehrlich ascites carcinoma (EAC) cells in PBS. In brief, EAC cells were withdrawn from the EAC mouse’s intraperitoneal cavity, washed, and centrifuged three times with sterile saline. Then, the pellets were suspended in sterile PBS and counted by the trypan blue exclusion assay, which confirmed that the viability of the cells was 98%. • I, II, and III treated groups: Firstly, 30 healthy mice were intraperitoneally injected with a single dose of 2.5 × 10^6 viable EAC cells. After one day; the mice were divided into I, II, and III treated groups (10 mice each group), intraperitoneally injected with 6, 12, and 18 mg/kg Ru(III) complex, respectively, for 12 days.
The animals were monitored for EAC growth by measuring abdominal size. At the end of the experiment all animals were fasted overnight then sacrificed. Serum samples were collected to study the biological parameters such as liver and kidney function as well as antioxidant enzyme activity. Liver samples from each group were frozen immediately in liquid nitrogen for molecular analysis.
Liver function tests. Serum GPT and GOT activities were measured by the method of Murray with a standard kit. The enzyme activities were estimated by measuring the decrease in absorbance of NADH at 340 nm. Bilirubin concentration was estimated by the colorimetric method of Kaplan et al.. Albumin concentration was measured colorimetrically by the color change of bromocresol from yellow-green to green-blue.
Kidney function tests. Creatinine was estimated colorimetrically by reacting with alkaline picrate forming a red complex. Urea was hydrolyzed enzymatically into ammonia which reacts with several compounds to form a green complex that can be measured colorimetrically. Uric acid was estimated by the enzymatic method of Schultz.

[2] = II control 12 mg/kg i.p. 12 days
[3] = III control 18 mg/kg i.p. 12 days

CS(C)=O.Nc1ccccc1-c1nc2ccccc2[nH]1.O.[Cl][Ru]([Cl])[Cl] [(2), [Ru(III)Cl3(DMSO)(Hapbim)]·H2O]
Bax mRNA level (Bax gene expression): significant increases
Albumin ([1]; I control 6 mg/kg i.p. 12 days): 2.3 ± 0.1 g/dL
Bilirubin ([1]; I control 6 mg/kg i.p. 12 days): 0.15 ±0.02 ^b mg/dL
Creatinine ([1]; I control 6 mg/kg i.p. 12 days): 0.37 ±0.1 ^b mg/dL
GOT ([1]; I control 6 mg/kg i.p. 12 days): 41.8 ± 2.9 ^b U/L
GPT ([1]; I control 6 mg/kg i.p. 12 days): 15.6 ± 1.6 ^b U/L
Urea ([1]; I control 6 mg/kg i.p. 12 days): 33.5 ± 0.7 ^b mg/dL
Uric Acid ([1]; I control 6 mg/kg i.p. 12 days): 2.9 ± 0.1 ^b mg/dL
Albumin [1, 2]: 2.7 ± 0.1 ^b g/dL
Bilirubin [1, 2]: 0.13 ± 0.02 ^b mg/dL
Creatinine [1, 2]: 0.7 ± 0.02 mg/dL
GOT [1, 2]: 54.9 ± 2.2 U/L
GPT [1, 2]: 17.2 ± 0.5 ^b U/L
Urea [1, 2]: 31.7 ± 1.2 ^b mg/dL
Uric Acid [1, 2]: 2.97 ± 0.1 ^b mg/dL
Albumin [1, 3]: 2.3 ± 0.1 g/dL
Bilirubin [1, 3]: 0.26 ± 0.02 mg/dL
Creatinine [1, 3]: 0.75 ± 0.02 mg/dL
GOT [1, 3]: 68.8 ± 3.6 U/L
GPT [1, 3]: 19.6 ± 0.3 U/L
Urea [1, 3]: 36.7 ± 1.6 ^b mg/dL
Uric Acid [1, 3]: 2.77 ± 0.1 ^b mg/dL
